Laboratory results from paper PMC10797628.
Where “and” joins values, the source holds several entries; their conditions need not be identical. Identical values can stand only once. Like-named read-outs stand apart in the source and are kept apart here.

What was measured:
human 5-HT1B receptor = target: T1, human 5-HT1B receptor (Homo sapiens, UniProt P28222); assay: Radioligand binding (saturation and competition), WT 5-HT1B; conditions: for higher affinity at 5-HT1B over 5-HT1A receptors: affinity ratio
T1 construct: host or cells: HEK293T

human 5-HT1D receptor [1] = target: T2, human 5-HT1D receptor (Homo sapiens, UniProt P28221); assay: Radioligand binding (saturation and competition), WT 5-HT1D; conditions: for higher affinity at 5-HT1D over 5-HT1A receptors: affinity ratio
T2 construct: host or cells: HEK293T

human 5-HT1A receptor = target: T3, human 5-HT1A receptor (Homo sapiens, UniProt P08908); assay: cAMP accumulation (LANCE Ultra TR-FRET) in HEK293T cells, WT 5-HT1A; type: cell-based; conditions: for Emax: HEK-293T; for EC50: cAMP accumulation, HEKt cells, mean ± SD
T3 construct: host or cells: HEK293T
T3 sequence (P08908 1-422): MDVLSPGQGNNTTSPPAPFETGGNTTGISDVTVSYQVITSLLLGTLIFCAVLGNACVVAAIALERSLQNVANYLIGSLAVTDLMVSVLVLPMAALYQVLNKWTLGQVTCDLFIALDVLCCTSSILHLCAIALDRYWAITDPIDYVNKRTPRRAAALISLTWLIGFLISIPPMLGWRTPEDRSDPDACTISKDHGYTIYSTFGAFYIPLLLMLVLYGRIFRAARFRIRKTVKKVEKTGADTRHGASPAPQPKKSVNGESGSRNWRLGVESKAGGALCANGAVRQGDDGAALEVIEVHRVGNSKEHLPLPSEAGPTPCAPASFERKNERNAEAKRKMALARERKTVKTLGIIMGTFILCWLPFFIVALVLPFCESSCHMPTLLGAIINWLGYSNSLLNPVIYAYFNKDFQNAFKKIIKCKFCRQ
Description: (§1) Briefly, cells transfected with the desired receptor construct and compounds were incubated in the dark for 90 min at 37 °C. After incubation, cAMP detection reagents were added, and TR-FRET was used to quantify the cAMP produced.
(§2) The functional activity of compounds was determined by stimulating cells expressing the desired receptor with FSK and test compound in parallel with 12 known concentrations of cAMP. The known concentrations of cAMP were used to create a standard curve for each experiment that was used to interpolate the unknown values of cAMP in wells with test compounds. […] The EC50 and EMAX values were determined using the “dose response – log[agonist] vs response (three parameter)” nonlinear regression model in Prism and transformed to pEC50 values, reported as mean ± SD.
(§3) Summary of functional assay conditions at various 5-HT1 receptor point mutation constructs.

human 5-HT1D receptor [2] = target: T2, human 5-HT1D receptor; assay: cAMP accumulation (LANCE Ultra TR-FRET) in HEK293T cells, WT 5-HT1D; type: cell-based; conditions: for Emax: HEK-293T; for higher functional potency at 5-HT1D over 5-HT1A receptors: cAMP potency ratio; for EC50: cAMP accumulation, HEKt cells, mean ± SD
Description: as §1, §2, §3

Y5.38F 5-HT1B receptor [3] = target: T4, Y5.38F 5-HT1B receptor (Homo sapiens, UniProt P28222, Y208F); assay: Radioligand binding, Y5.38F 5-HT1B; conditions: read-out: pKi 5-HT1B Receptor Y5.38F (converted)
T4 construct: host or cells: HEK293T

Y5.38F 5-HT1B receptor [4] = target: T4, Y5.38F 5-HT1B receptor; assay: cAMP accumulation in HEK293T cells, Y5.38F 5-HT1B; type: cell-based; conditions: point-mutated receptor, 3 independent experiments, read-out: pEC50 5-HT1B Receptor Y5.38F (converted)
Description: as §1, §2
(§4) Cell Type Receptor Cell Density [Forskolin] Incubation time
as §3

S5.42A 5-HT1B receptor [5] = target: T5, S5.42A 5-HT1B receptor (Homo sapiens, UniProt P28222, S212A); assay: cAMP accumulation in HEK293T cells, S5.42A 5-HT1B; type: cell-based; parameters: host or cells: HEK293T; conditions: point-mutated receptor, 3 independent experiments, read-out: pEC50 5-HT1B Receptor S5.42A (converted)
Description: as §1, §2, §4, §3

V45.52I 5-HT1D receptor [6] = target: T6, V45.52I 5-HT1D receptor (Homo sapiens, UniProt P28221, V190I); assay: cAMP accumulation in HEK293T cells, V45.52I 5-HT1D; type: cell-based; parameters: host or cells: HEK293T; conditions: point-mutated receptor, 3 independent experiments, read-out: pEC50 5-HT1D Receptor V45.52I (converted)
Description: as §1, §2, §4, §3

Y5.38F 5-HT1D receptor = Y5.38F 5-HT1D receptor (Homo sapiens, UniProt P28221, Y197F); assay: cAMP accumulation in HEK293T cells, Y5.38F 5-HT1D; type: cell-based; parameters: host or cells: HEK293T; conditions: point-mutated receptor, 3 independent experiments, read-out: pEC50 5-HT1D Receptor Y5.38F (converted)
Description: as §1, §2, §3

Y5.38A 5-HT1D receptor = Y5.38A 5-HT1D receptor (Homo sapiens, UniProt P28221, Y197A); assay: cAMP accumulation in HEK293T cells, Y5.38A 5-HT1D; type: cell-based; parameters: host or cells: HEK293T; conditions: point-mutated receptor, 3 independent experiments, read-out: pEC50 5-HT1D Receptor Y5.38A (converted)
Description: as §1, §2, §3

S5.42A 5-HT1D receptor = S5.42A 5-HT1D receptor (Homo sapiens, UniProt P28221, S201A); assay: cAMP accumulation in HEK293T cells, S5.42A 5-HT1D; type: cell-based; parameters: host or cells: HEK293T; conditions: point-mutated receptor, 3 independent experiments, read-out: pEC50 5-HT1D Receptor S5.42A (converted)
Description: as §1, §2, §3

T7.39N 5-HT1B receptor = T7.39N 5-HT1B receptor (Homo sapiens, UniProt P28222, T355N); assay: Radioligand binding, T7.39N 5-HT1B
Description: (§5) 48 hours after transfection with the desired receptor construct, cells were isolated for saturation and competition binding assays as previously described.[47],[48],[57] Saturation and competition radioligand binding assays were conducted in an assay buffer consisting of 50 mM Tris HCl, 10 mM MgCl2, and 0.1 mM EDTA in filtered deionized water. […] Briefly, 5–10 μg of the receptor protein, as determined by a Thermo Fisher Pierce BCA protein assay kit, was incubated with 8 concentrations of radioligand in triplicate to determine total binding. […] Nonspecific binding was determined as above for saturation assays.
(§6) For radioligand binding data, nonspecific binding was subtracted from the total binding to get specific binding. Saturation binding data was fit to the “binding saturation-specific binding with hill slope” model. Competition binding data were fit to the “binding competition-one-site fit Ki” non-linear regression model and transformed to pKi values, reported as mean ± SD.
(§7) is 50 mM Tris HCl, 10 mM MgCl2 and 0.1 mM EDTA in filtered deionized water.

S5.42A 5-HT1B receptor [7] = target: T5, S5.42A 5-HT1B receptor; assay: Radioligand binding, S5.42A 5-HT1B
Description: as §5, §6, §7

T7.39N 5-HT1D receptor = T7.39N 5-HT1D receptor (Homo sapiens, UniProt P28221, T342N); assay: Radioligand binding, T7.39N 5-HT1D
Description: as §5, §6, §7

V45.52I 5-HT1B receptor [8] = target: T7, V45.52I 5-HT1B receptor (Homo sapiens, UniProt P28222, V201I); assay: Radioligand binding, V45.52I 5-HT1B
Description: as §5, §6, §7

V45.52I 5-HT1D receptor [9] = target: T6, V45.52I 5-HT1D receptor; assay: Radioligand binding, V45.52I 5-HT1D
Description: as §5, §6, §7

V45.52I 5-HT1B receptor [10] = target: T7, V45.52I 5-HT1B receptor; assay: cAMP accumulation in HEK293T cells, V45.52I 5-HT1B; type: cell-based; parameters: mutated in house (Quikchange II) HTR01B0000; host or cells: HEK293T; conditions: point-mutated receptor, 3 independent experiments, read-out: pEC50 5-HT1B Receptor V45.52I (converted)
Description: as §1, §2, §4, §3

[11] = Affinity (pKi ± SD) 5-HT1D, WT receptor, [^3H]5-CT competition, mean ± SD
[12] = read-out: 5-HT1A EMAX (%), WT receptor, normalized to basal (0%) and 10 μM 5-CT (100%)
[13] = read-out: 5-HT1D EMAX (%), WT receptor, normalized to basal (0%) and 10 μM 5-CT (100%)

Chain of T7.39N 5-HT1D receptor (P28221 whole entry T342N): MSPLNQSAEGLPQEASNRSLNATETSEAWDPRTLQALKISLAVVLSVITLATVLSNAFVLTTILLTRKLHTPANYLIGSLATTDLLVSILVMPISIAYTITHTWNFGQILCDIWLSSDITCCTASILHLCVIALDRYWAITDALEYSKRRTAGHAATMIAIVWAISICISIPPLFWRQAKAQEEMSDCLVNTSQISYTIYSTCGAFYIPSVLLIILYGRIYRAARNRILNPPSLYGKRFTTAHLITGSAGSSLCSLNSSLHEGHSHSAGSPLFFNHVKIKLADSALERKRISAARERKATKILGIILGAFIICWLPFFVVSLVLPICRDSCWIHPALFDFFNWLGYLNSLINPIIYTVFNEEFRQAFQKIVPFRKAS
Chain of Y5.38F 5-HT1D receptor (P28221 whole entry Y197F): as the sequence (P28221 whole entry T342N) above, with Y197F, N342T counted along it
Chain of Y5.38A 5-HT1D receptor (P28221 whole entry Y197A): as the sequence (P28221 whole entry T342N) above, with Y197A, N342T counted along it
T6 sequence (P28221 whole entry V190I): as the sequence (P28221 whole entry T342N) above, with V190I, N342T counted along it
Chain of S5.42A 5-HT1D receptor (P28221 whole entry S201A): as the sequence (P28221 whole entry T342N) above, with S201A, N342T counted along it
T2 sequence (P28221 whole entry): as the sequence (P28221 whole entry T342N) above, with N342T counted along it
T4 sequence (P28222 whole entry Y208F): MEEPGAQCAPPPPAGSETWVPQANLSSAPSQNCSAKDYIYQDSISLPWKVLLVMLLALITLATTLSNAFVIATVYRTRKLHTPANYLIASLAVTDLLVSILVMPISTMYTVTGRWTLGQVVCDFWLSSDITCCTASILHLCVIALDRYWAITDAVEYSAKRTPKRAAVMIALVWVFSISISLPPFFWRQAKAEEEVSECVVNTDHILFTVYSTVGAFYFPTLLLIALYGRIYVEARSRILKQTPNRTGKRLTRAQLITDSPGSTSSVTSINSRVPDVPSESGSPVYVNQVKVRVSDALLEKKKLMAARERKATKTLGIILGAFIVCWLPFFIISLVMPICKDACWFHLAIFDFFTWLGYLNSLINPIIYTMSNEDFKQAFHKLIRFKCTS
Chain of T7.39N 5-HT1B receptor (P28222 whole entry T355N): as the sequence (P28222 whole entry Y208F) above, with F208Y, T355N counted along it
T1 sequence (P28222 whole entry): as the sequence (P28222 whole entry Y208F) above, with F208Y counted along it
T5 sequence (P28222 whole entry S212A): as the sequence (P28222 whole entry Y208F) above, with F208Y, S212A counted along it
T7 sequence (P28222 whole entry V201I): as the sequence (P28222 whole entry Y208F) above, with V201I, F208Y counted along it

SMILES | higher affinity at 5-HT1B over 5-HT1A receptors (human 5-HT1B receptor) | Ki (human 5-HT1D receptor [1]; [11]) | higher affinity at 5-HT1D over 5-HT1A receptors (human 5-HT1D receptor [1]) | Emax (human 5-HT1A receptor; [12]) | Emax (human 5-HT1D receptor [2]; [13]) | higher functional potency at 5-HT1D over 5-HT1A receptors (human 5-HT1D receptor [2]) | Ki (Y5.38F 5-HT1B receptor [3]) | EC50 (Y5.38F 5-HT1B receptor [4]) | EC50 (S5.42A 5-HT1B receptor [5]) | EC50 (V45.52I 5-HT1D receptor [6]) | EC50 (Y5.38F 5-HT1D receptor) | EC50 (Y5.38A 5-HT1D receptor) | EC50 (S5.42A 5-HT1D receptor) | Ki (T7.39N 5-HT1B receptor) | Ki (S5.42A 5-HT1B receptor [7]) | Ki (T7.39N 5-HT1D receptor) | Ki (V45.52I 5-HT1B receptor [8]) | Ki (V45.52I 5-HT1D receptor [9]) | EC50 (V45.52I 5-HT1B receptor [10]) | also measured
CN(C)[C@H]1CCc2c(cccc2-c2ccccc2F)C1 [(S)-FPT] | 2 fold | 1.07 nM | 4 fold | 90 ± 2% | 103 ± 3% | ~80 fold | 1.91 nM | 0.813 nM | 1.02 nM | 1.48 nM | 1.55 nM | 1.45 nM | 1.35 nM | 7.41 nM | 2.57 nM | 10.7 nM | 1.91 nM | 1.05 nM | 0.776 nM | 
CN(C)[C@H]1CCc2c(cccc2-c2cccc3ccccc23)C1 [(S)-NAP] | 10 fold | 0.832 nM | 70 fold | 72 ± 4% | 90 ± 3% | ~40 fold | 5.62 nM | 35.5 nM | 35.5 nM | 257 nM | 11.2 nM | 288 nM | 10 nM | 6.46 nM | 5.89 nM | 1.07 nM | 41.7 nM | 37.2 nM | 224 nM | Ki (human 5-HT1B receptor; Affinity (pKi ± SD) 5-HT1B, WT receptor, [^3H]5-CT competition, mean ± SD): 4.57 nM; EC50 (human 5-HT1A receptor; 5-HT1A pEC50, WT receptor): 389 nM; EC50 (human 5-HT1D receptor [2]; 5-HT1D pEC50, WT receptor): 8.71 nM
Fc1ccccc1-c1cccc2c1CC[C@H](N1CCCC1)C2 [(S)-PFPT] |  |  |  |  |  |  | 15.1 nM | 55 nM | 316 nM | 58.9 nM | 240 nM | 191 nM | 309 nM | 5.89 nM | 102 nM | 4.17 nM | 14.5 nM | 14.8 nM | 51.3 nM | Ki (human 5-HT1B receptor; read-out: Affinity (pKi ± SD) 5-HT1B (converted)): 12 nM; Ki (human 5-HT1D receptor [1]; read-out: Affinity (pKi ± SD) 5-HT1D (converted)): 13.5 nM; Emax (human 5-HT1A receptor; read-out: 5-HT1A EMAX (%)): 100 ± 2%; EC50 (human 5-HT1A receptor; WT receptor, read-out: 5-HT1A pEC50 (converted)): 1.66 nM; higher functional potency at 5-HT1A over 5-HT1B and 5-HT1D receptors (human 5-HT1A receptor; cAMP potency ratio): ~40 fold and 35 fold; Emax (human 5-HT1D receptor [2]; read-out: 5-HT1D EMAX (%)): 98 ± 3%; EC50 (human 5-HT1D receptor [2]; WT receptor, read-out: 5-HT1D pEC50 (converted)): 57.5 nM
